Assay results published in patent publication US10315996B2, “ROR gamma (RORγ) modulators” (LEAD PHARMA HOLDING B.V., priority 2015, dated 2019).

These compounds were tested against T1, RORγ (Homo sapiens, UniProt P51449) (assay: RORγ GAL4 reporter gene assay). Conditions: inhibition of RORγ activity, GAL4-RORγ-LBD luciferase reporter in 293FT cells, overnight incubation; read-out: mean pIC50 (converted).
T1 construct: expressed in transfected cells; host or cells: 293FT cells (Invitrogen), expression vector pFN26A (Promega)
T1 sequence (P51449 269-508 limits assumed): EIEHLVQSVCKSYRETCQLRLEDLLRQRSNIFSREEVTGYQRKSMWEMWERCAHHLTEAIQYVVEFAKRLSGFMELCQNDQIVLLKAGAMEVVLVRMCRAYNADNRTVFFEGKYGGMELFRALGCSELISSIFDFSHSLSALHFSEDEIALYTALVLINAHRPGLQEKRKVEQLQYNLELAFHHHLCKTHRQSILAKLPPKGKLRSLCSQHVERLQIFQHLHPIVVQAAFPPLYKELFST
Assay type: cell-based
Method in brief: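 293FT cells were transiently co-transfected with GAL4-DBD–RORγ-LBD (or GAL4-VP16 control) and a 9×UAS luc2P reporter, then plated at 60,000 cells/well. Compound was added at final 0.2% DMSO for 16-24 h at 37 °C, and inhibition was measured by firefly luciferase luminescence.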

Compound | IC50
CC(N(C(=O)c1ccc(NC(=O)Cc2ccc(S(=O)(=O)NC3CC3)cc2)cc1)c1ccccc1)C(F)(F)F (stereo not drawn) [Example 148, 4-{2-[4-(cyclopropylsulfamoyl)phenyl]acetamido}-N-phenyl-N-(1,1,1-trifluoropropan-2-yl)benzamide] | ≤ 100 nM
COc1ccccc1N(C)C(=O)c1ccc(NC(=O)Cc2ccc(S(=O)(=O)CC3CC3)cc2)cc1Cl [Example 125, 2-chloro-4-[2-(4-cyclopropylmethanesulfonylphenyl)acetamido]-N-(2-methoxyphenyl)-N-methylbenzamide] | ≤ 10 nM
COC(=O)C(C)(C)N(C(=O)c1ccc(NC(=O)Cc2ccc(S(=O)(=O)CC3CC3)cc2)cc1)c1ccccc1 [Example 145, methyl 2-(1-{4-[2-(4-cyclopropylmethanesulfonylphenyl)acetamido]phenyl}-N-phenylformamido)-2-methylpropanoate] | ≤ 10 nM
O=C(Cc1ccc(S(=O)(=O)CC2CC2)cc1)Nc1ccc(C(=O)N2CCCCC2)cc1 [Example 36, 2-(4-cyclopropylmethanesulfonylphenyl)-N-[4-(piperidine-1-carbonyl)phenyl]acetamide] | ≤ 1000 nM
CCCN(C(=O)c1ccc(NC(=O)Cc2ccc(S(=O)(=O)NC3CC3)cc2)cc1)c1ccccc1 [Example 22, 4-{2-[4-(cyclopropylsulfamoyl)phenyl]acetamido}-N-phenyl-N-propylbenzamide] | ≤ 100 nM
CC(C)(C)N(C(=O)c1ccc(NC(=O)Cc2ccc(S(=O)(=O)CC3CC3)nc2)cc1)c1ccccc1 [Example 158, N-tert-butyl-4-[2-(6-cyclopropylmethanesulfonylpyridin-3-yl)acetamido]-N-phenylbenzamide] | ≤ 10 nM
CCN(C(=O)c1ccc(NC(=O)Cc2ccc(S(=O)(=O)CC3CC3)cc2)cc1)c1c(C)noc1C [Example 108, 4-[2-(4-cyclopropylmethanesulfonylphenyl)acetamido]-N-(dimethyl-1,2-oxazol-4-yl)-N-ethyl-benzamide] | ≤ 100 nM
CCCCN(C(=O)c1ccc(NC(=O)Cc2ccc(S(=O)(=O)CC3CC3)cc2)cc1)c1nccs1 [Example 82, N-butyl-4-[2-(4-cyclopropylmethanesulfonylphenyl)acetamido]-N-(1,3-thiazol-2-yl)benzamide] | ≤ 100 nM
CCN(C(=O)c1ccc(NC(=O)Cc2ccc(S(=O)(=O)CC3CC3)cc2)c(C)c1)c1ccccc1 [Example 105, 4-[2-(4-cyclopropylmethanesulfonylphenyl)acetamido]-N-ethyl-3-methyl-N-phenylbenzamide] | ≤ 100 nM
O=C(Cc1ccc(S(=O)(=O)CC2CC2)cc1)Nc1ccc(C(=O)NCc2ccccc2)cc1 [Example 13, N-benzyl-4-[2-(4-cyclopropylmethanesulfonylphenyl)acetamido]benzamide] | ≤ 1000 nM
COc1ccccc1N(C)C(=O)c1ccc(NC(=O)Cc2ccc(S(=O)(=O)CC3CC3)cc2)cc1C [Example 122, 4-[2-(4-cyclopropylmethanesulfonylphenyl)acetamido]-N-(2-methoxyphenyl)-N,2-dimethylbenzamide] | ≤ 10 nM
CCN(C(=O)c1ccc(NC(=O)Cc2ccc(S(=O)(=O)CC3CC3)cc2)c(OC)c1)c1ccccc1 [Example 101, 4-[2-(4-cyclopropylmethanesulfonylphenyl)acetamido]-N-ethyl-3-methoxy-N-phenylbenzamide] | ≤ 1000 nM
CN(C(=O)c1ccc(NC(=O)Cc2ccc(S(=O)(=O)CC3CC3)cc2)cc1)c1ccccc1 [Example 3, 4-[2-(4-cyclopropylmethanesulfonylphenyl)acetamido]-N-methyl-N-phenylbenzamide] | ≤ 10 nM
O=C(Cc1ccc(S(=O)(=O)CC2CC2)cc1)Nc1ccc(C(=O)N(c2ccccc2)C2COC2)cc1 [Example 149, 4-[2-(4-cyclopropylmethanesulfonylphenyl)acetamido]-N-(oxetan-3-yl)-N-phenylbenzamide] | ≤ 10 nM
CCN(C(=O)c1ccc(NC(=O)Cc2ccc(S(=O)(=O)CC3CC3)cc2)cc1C)c1cccc(C)c1C [Example 164, 4-[2-(4-cyclopropylmethanesulfonylphenyl)acetamido]-N-(2,3-dimethylphenyl)-N-ethyl-2-methylbenzamide] | ≤ 10 nM
CCN(C(=O)c1ccc(NC(=O)Cc2ccc(S(=O)(=O)NC3CC3)cc2)cc1Cl)c1ccccc1 [Example 112, 2-chloro-4-{2-[4-(cyclopropylsulfamoyl)phenyl]acetamido}-N-ethyl-N-phenylbenzamide] | ≤ 1000 nM
O=C(Cc1ccc(S(=O)(=O)NC2CC2)cc1)Nc1ccc(C(=O)N2CCCCC2c2ccccc2)cc1 (stereo not drawn) [Example 66, 2-[4-(cyclopropylsulfamoyl)phenyl]-N-[4-(2-phenylpipendine-1-carbonyl)phenyl]acetamide] | ≤ 100 nM
CC(N(C(=O)c1ccc(NC(=O)Cc2ccc(S(=O)(=O)CC3CC3)cc2)cc1)c1ccccc1)C(F)(F)F (stereo not drawn) [Example 146, 4-[2-(4-cyclopropylmethanesulfonylphenyl)acetamido]-N-phenyl-N-(1,1,1-trifluoropropan-2-yl)benzamide] | ≤ 10 nM
CCN(C(=O)c1ccc(NC(=O)Cc2ccc(S(=O)(=O)CC3CC3)cc2)cc1)c1ccccc1 [Example 16, 4-[2-(4-cyclopropylmethanesulfonylphenyl)acetamido]-N-ethyl-N-phenylbenzamide] | ≤ 10 nM
CC(C)CN(C(=O)c1ccc(NC(=O)Cc2ccc(S(=O)(=O)CC3CC3)cc2)cc1)c1ccccc1 [Example 37, 4-[2-(4-cyclopropylmethanesulfonylphenyl)acetamido]-N-(2-methylpropyl)-N-phenylbenzamide] | ≤ 10 nM
CC(C)(C)N(C(=O)c1ccc(NC(=O)Cc2ccc(S(=O)(=O)NC3CC3)cc2)cc1)c1ccccc1 [Example 131, N-tert-butyl-4-{2-[4-(cyclopropylsulfamoyl)phenyl]acetamido}-N-phenylbenzamide] | ≤ 10 nM
CCN(C(=O)c1ccc(NC(=O)Cc2ccc(S(=O)(=O)CC3CC3)cc2)cc1Cl)c1ccccc1Cl [Example 128, 2-chloro-N-(2-chlorophenyl)-4-[2-(4-cyclopropylmethanesulfonylphenyl)acetamido]-N-ethylbenzamide] | ≤ 10 nM
CCN(C(=O)c1ccc(NC(=O)Cc2ccc(S(=O)(=O)NC3CC3)cc2)c(C)c1)c1ccccc1 [Example 106, 4-{2-[4-(cyclopropylsuIfamoyl)phenyl]acetamido}-N-ethyl-3-methyl-N-phenylbenzamide] | ≤ 1000 nM
Cc1cc(NC(=O)Cc2ccc(S(=O)(=O)CC3CC3)cc2)ccc1C(=O)N(C)c1ccccc1F [Example 165, 4-[2-(4-cyclopropylmethanesulfonylphenyl)acetamido]-N-(2-fluorophenyl)-N,2-dimethylbenzamide] | ≤ 100 nM
CC(C)(C)N(Cc1ccccc1)C(=O)c1ccc(NC(=O)Cc2ccc(S(=O)(=O)CC3CC3)cc2)cc1 [Example 113, N-benzyl-N-tert-butyl-4-[2-(4-cyclopropylmethanesulfonylphenyl)acetamido]benzamide] | ≤ 10 nM
CCCN(C(=O)c1ccc(NC(=O)Cc2ccc(S(=O)(=O)CC3CC3)cc2)cc1)c1ccsc1 [Example 81, 4-[2-(4-cyclopropylmethanesulfonylphenyl)acetamido]-N-propyl-N-(thiophen-3-yl)benzamide] | ≤ 10 nM
O=C(Cc1ccc(S(=O)(=O)CC2CC2)cc1)Nc1ccc(C(=O)N(c2ccccn2)C2CC2)cc1 [Example 137, N-cyclopropyl-4-[2-(4-cyclopropylmethanesulfonylphenyl)acetamido]-N-(pyridin-2-yl)benzamide] | ≤ 100 nM
